Data: patent publication US20260027118A1, “COMPOSITIONS USEFUL FOR MODULATING SPLICING” (Skyhawk Therapeutics, Inc., priority 2022, published 2026)

What was measured:
ATXN3-HiBiT protein = experiment: ATXN3 HiBiT assay (Nano Glo HiBiT luminescence); assay type: cell-based; settings: Kelly-ATXN3-HiBiT cells, luminescence read out 48 h after addition of the compound
Excerpt: To monitor ATXN3 protein levels by luminescence, a Kelly-ATXN3-HiBiT cell line with homozygous knock-in of HiBiT at the C-terminus of the endogenous ATXN3 gene was used (knock-in of the HiBiT-tag coding sequence SEQ ID NO. 14: 5′[…]3′ into exon 11 of ATXN3 -position 1114 of ATXN3 RefSeq NM_004993.6). Manipulations of the Kelly-ATXN3-HiBiT cell line that result in downregulation of the ATXN3-HiBiT protein (through modulation of ATXN3-HiBiT pre-mRNA splicing) can be followed by monitoring the luminescence signal of the HiBiT tag using the Nano Glo HiBiT Lytic Detection System (Promega, #N3050). Kelly-ATXN3-HiBiT cells were maintained in RPMI 1640 w/Glutamax (Gibco, #61870010), 10% FBS (Sigma Aldrich, #F8687), 1% Penicillin/Streptomycin (Gibco, #15140-122) at 37° C., 5% CO2. To assess HiBiT-luminescence signal upon compound treatment, 2000 Kelly-ATXN3-HiBiT cells were seeded per well in 384 plate format. Compounds were added 24 h after seeding. ATXN3-HiBiT-luminescence signal was read out 48 h after addition of the compound using the Nano Glo HiBiT Lytic Detection System (Promega, #N3050) according to the manufacturer's instructions. To control for cell viability, an identically prepared sister plate was read out with the CellTiter-Glo® 2.0 Assay (Promega, #G9243) according to the manufacturer's instructions. Fold changes of ATXN3-HiBiT-luminescence and of CellTiter-Glo viability signals were calculated relative to a DMSO control condition.

[1] = system: ATXN3 transcripts containing exon 4; experiment: ATXN3 Quantitative Splicing Assay (qPCR, E4E5 primers/probe); assay type: cell-based, Human; settings: SK-N-MC cells, treated with compounds for 24 h, qPCR of transcripts containing exon 4
Procedure: Human neuroblastoma SK-N-MC cells were plated in 384-well plates at 20,000 cells/well. Twenty-four hours after plating, cells were treated with compounds for 24 h at appropriate concentrations ranging from 30.M to 0.6 nM (0.300 DMS0). Treated cells were lysed in 15 μL of lysis buffer, and cDNA was synthesized using the Fast Advanced Cells-to-Ct kit. Two μL of each cDNA was used in qPCR reactions to confirm the exon 4 skipped transcripts of ATXN3. A second set of primers/probe E4E5 was used to detect the transcripts containing exon 4. The third set of primers/probe E8E9 was used to detect total gene level of ATXN3. The qPCR reactions were prepared in 384-well plates in 10 μL volume, using TaqMan™ Fast Advanced Master Mix with primers and probes shown in the table below. Reactions were run in a Quant Studio 6 qPCR instrument with default settings.
The primers and probes are listed below in Table 4.

total ATXN3 protein = experiment: ATXN3 total protein assay (Mesoscale Discovery); assay type: cell-based, Human; settings: SK-N-MC cells, 48 hours incubation, MSD assay
Procedure: Human neuroblastoma SK-N-MC cells were seeded at 10,000 cells/well in 384 well plates one day prior to compound treatment. The concentrations of compounds were tested at appropriate doses ranging from 30 μM to 0.6 nM. After incubation for 48 hours, the cells were lysed with 25 μL of lysis buffer containing protease inhibitors, and total ATXN3 protein levels were assessed by Mesoscale Discovery (MSD) assay developed with one pair of anti-ATXN3 antibodies. The capture and detect antibodies were raised in mouse and rabbit respectively. Anti-rabbit MSD-ST antibody was used for secondary antibody. ATXN3 recombinant protein was used for standards. The readouts were captured with 35 μL of MSD read buffer and multi-array 384-well high binding plates.

“2-[(R)-2-amino-3-methoxy(1,1- ^2H2)propyl]-5-chloro-3-(1- propynyl)-7-thenylamino-1-oxa-4- azaindene [Compound 44]” gave an EC50 (ATXN3-HiBiT protein) of 0.01 to 100 nM.

Work on `CC#Cc1c(C2CCC2N)oc2c(NCc3cccs3)cc(Cl)nc12` (single isomer, unassigned) [Compound 50, 2-(2-aminocyclobutyl)-5-chloro-3-(prop-1-yn-1-yl)-N-(thiophen-2-ylmethyl)furo[3,2-b]pyridin-7-amine] yielded an IC50 ([1]; Homo sapiens) of 501 to 5000 nM.

With `CC#Cc1c(C2CCC2N)oc2c(NCc3cccs3)cc(Cl)nc12` (single isomer, unassigned) [Compound 51, 2-(2-aminocyclobutyl)-5-chloro-3-(prop-1-yn-1-yl)-N-(thiophen-2-ylmethyl)furo[3,2-b]pyridin-7-amine] the IC50 [1] was 501 to 5000 nM.

`CC#Cc1c(C[C@H](C)N)oc2c(NCc3cccs3)cc(Cl)nc12` [Compound 1, 2-[(S)-2-aminopropyl]-5-chloro-3-(1-propynyl)-7-thenylamino-1-oxa-4-azaindene] gave an EC50 (ATXN3-HiBiT protein) of 101 to 500 nM, an IC50 (total ATXN3 protein) of 101 to 500 nM and an IC50 ([1]; Homo sapiens) of 101 to 500 nM.

`CC#Cc1c(C[C@H](C)N)oc2c(NCc3ccco3)cc(Cl)nc12` [Compound 2, 2-[(S)-2-aminopropyl]-5-chloro-7-(furfurylamino)-3-(1-propynyl)-1-oxa-4-azaindene] gave an EC50 (ATXN3-HiBiT protein) of 101 to 500 nM, an IC50 (total ATXN3 protein) of 101 to 500 nM and an IC50 ([1]; Homo sapiens) of 101 to 500 nM.

`CC#Cc1c(C[C@@H](N)CC(F)(F)F)oc2c(NCc3ccco3)cc(Cl)nc12` [Compound 3, 2-[(R)-2-amino-4,4,4-trifluorobutyl]-5-chloro-7-(furfurylamino)-3-(1-propynyl)-1-oxa-4-azaindene] gave an EC50 (ATXN3-HiBiT protein) of 101 to 500 nM, an IC50 (total ATXN3 protein) of 101 to 500 nM and an IC50 ([1]; Homo sapiens) of 101 to 500 nM.

Work on `CC#Cc1c(C[C@@H](N)CC(F)(F)F)oc2c(NCc3cccs3)cc(Cl)nc12` [Compound 4, 2-[(R)-2-amino-4,4,4-trifluorobutyl]-5-chloro-3-(1-propynyl)-7-thenylamino-1-oxa-4-azaindene] yielded an EC50 (ATXN3-HiBiT protein) of 101 to 500 nM, an IC50 (total ATXN3 protein) of 101 to 500 nM and an IC50 ([1]; Homo sapiens) of 101 to 500 nM.

Molecule `CC#Cc1c(C[C@@H](N)[C@H](C)F)oc2c(NCc3ccco3)cc(Cl)nc12` [Compound 5, 2-[(2R,3S)-2-amino-3-fluorobutyl]-5-chloro-7-(furfurylamino)-3-(1-propynyl)-1-oxa-4-azaindene] has an EC50 (ATXN3-HiBiT protein) of 0.01 to 100 nM, an IC50 (total ATXN3 protein) of 0.01 to 100 nM and an IC50 ([1]; Homo sapiens) of 0.01 to 100 nM.

In the case of `CC#Cc1c(C[C@@H](N)[C@H](C)F)oc2c(NCc3cccs3)cc(Cl)nc12` [Compound 6, 2-[(2R,3S)-2-amino-3-fluorobutyl]-5-chloro-3-(1-propynyl)-7-thenylamino-1-oxa-4-azaindene], the EC50 (ATXN3-HiBiT protein) is reported as 0.01 to 100 nM, the IC50 (total ATXN3 protein) is reported as 0.01 to 100 nM and the IC50 ([1]; Homo sapiens) is reported as 0.01 to 100 nM.

Molecule `C[C@H](F)[C@H](N)Cc1oc2c(NCc3ccco3)cc(Cl)nc2c1C#CC1CC1` [Compound 7, 2-[(2R,3S)-2-amino-3-fluorobutyl]-5-chloro-3-(2-cyclopropylethynyl)-7-(furfurylamino)-1-oxa-4-azaindene] has an EC50 (ATXN3-HiBiT protein) of 101 to 500 nM, an IC50 (total ATXN3 protein) of 101 to 500 nM and an IC50 ([1]; Homo sapiens) of 101 to 500 nM.

In the case of `C[C@H](F)[C@H](N)Cc1oc2c(NCc3cccs3)cc(Cl)nc2c1C#CC1CC1` [Compound 8, 2-[(2R,3S)-2-amino-3-fluorobutyl]-5-chloro-3-(2-cyclopropylethynyl)-7-thenylamino-1-oxa-4-azaindene], the EC50 (ATXN3-HiBiT protein) is reported as 101 to 500 nM, the IC50 (total ATXN3 protein) is reported as 501 to 5000 nM and the IC50 ([1]; Homo sapiens) is reported as 101 to 500 nM.

Work on `C[C@H](N)Cc1oc2c(NCc3ccco3)cc(Cl)nc2c1C#CC1CC1` [Compound 9, 2-[(S)-2-aminopropyl]-5-chloro-3-(2-cyclopropylethynyl)-7-(furfurylamino)-1-oxa-4-azaindene] yielded an EC50 (ATXN3-HiBiT protein) of 501 to 5000 nM, an IC50 (total ATXN3 protein) of 501 to 5000 nM and an IC50 ([1]; Homo sapiens) of 501 to 5000 nM.

For `CC#Cc1c(C[C@@H](N)[C@H](C)F)oc2c(NCc3ccccc3F)cc(Cl)nc12` [Compound 13, 2-[(2R,3S)-2-amino-3-fluorobutyl]-5-chloro-7-{[(o-fluorophenyl)methyl]amino}-3-(1-propynyl)-1-oxa-4-azaindene], the EC50 (ATXN3-HiBiT protein) was 501 to 5000 nM.

Molecule `CC#Cc1c(C[C@@H](N)[C@H](C)F)oc2c(NCc3c(F)cccc3F)cc(Cl)nc12` [Compound 14, 2-[(2R,3S)-2-amino-3-fluorobutyl]-5-chloro-7-{[(2,6-difluorophenyl)methyl]amino}-3-(1-propynyl)-1-oxa-4-azaindene] has an EC50 (ATXN3-HiBiT protein) of 10000 to 40000 nM.

Work on `CC#Cc1c(C[C@@H](N)CCOC(F)F)oc2c(NCc3cccs3)cc(Cl)nc12` [Compound 31, 2-[(S)-2-amino-4-difluoromethoxybutyl]-5-chloro-3-(1-propynyl)-7-thenylamino-1-oxa-4-azaindene] yielded an EC50 (ATXN3-HiBiT protein) of 0.01 to 100 nM.

Work on `CC#Cc1c(C[C@@H](N)CO)oc2c(NCc3cccs3)cc(Cl)nc12` [Compound 34, (R)-2-amino-3-[5-chloro-3-(1-propynyl)-7-thenylamino-1-oxa-4-aza-2-indenyl]-1-propanol] yielded an EC50 (ATXN3-HiBiT protein) of 0.01 to 100 nM.

`[2H]C([2H])([2H])OC[C@H](N)Cc1oc2c(NCc3cccs3)cc(Cl)nc2c1C#CC` [Compound 35, 2-[2-amino-3-(^2H3)methoxypropyl]-5-chloro-3-(1-propynyl)-7-thenylamino-1-oxa-4-azaindene] gave an EC50 (ATXN3-HiBiT protein) of 0.01 to 100 nM.

Work on `CC#Cc1c(C[C@@H](N)[C@H](C)F)oc2c(NCc3cccs3)c(F)c(Cl)nc12` [Compound 37, 2-[(2R,3S)-2-amino-3-fluorobutyl]-5-chloro-6-fluoro-3-(1-propynyl)-7-thenylamino-1-oxa-4-azaindene] yielded an IC50 ([1]; Homo sapiens) of 501 to 5000 nM.

`[2H]C([2H])([2H])OC[C@H](N)Cc1oc2c(NC([2H])([2H])c3cccs3)cc(Cl)nc2c1C#CC` [Compound 40, 2-[(R)-2-amino-3-(^2H3)methoxypropyl]-5-chloro-3-(1-propynyl)-7-{[(2-thienyl)(^2H2)methyl]amino}-1-oxa-4-azaindene] showed an EC50 (ATXN3-HiBiT protein) of 0.01 to 100 nM.

Molecule `[2H]C([2H])([2H])OCC[C@H](N)Cc1oc2c(NCc3cccs3)cc(Cl)nc2c1C#CC` [Compound 42, 2-[(S)-2-amino-4-(^2H3)methoxybutyl]-5-chloro-3-(1-propynyl)-7-thenylamino-1-oxa-4-azaindene] has an EC50 (ATXN3-HiBiT protein) of 0.01 to 100 nM.

For `[2H]C([2H])(c1oc2c(NCc3cccs3)cc(Cl)nc2c1C#CC)[C@H](C)N` [Compound 43, 2-[(S)-2-amino(1,1-^2H2)propyl]-5-chloro-3-(1-propynyl)-7-thenylamino-1-oxa-4-azaindene], the EC50 (ATXN3-HiBiT protein) was 0.01 to 100 nM.

With `[2H]C([2H])(c1oc2c(NCc3cccs3)cc(Cl)nc2c1C#CC)[C@@H](N)CF` [Compound 45, 2-[(R)-2-amino-3-fluoro(1,1- ^2H2)propyl]-5-chloro-3-(1-propynyl)-7-thenylamino-1-oxa-4-azaindene] the EC50 (ATXN3-HiBiT protein) was 0.01 to 100 nM.

For `[2H]C([2H])([2H])OC([2H])([2H])[C@H](N)Cc1oc2c(NCc3cccs3)cc(Cl)nc2c1C#CC` [Compound 47, 2-[(R)-2-amino-3-(^2H3)methoxy(3,3-^2H2)propyl]-5-chloro-3-(1-propynyl)-7-thenylamino-1-oxa-4-azaindene], the EC50 (ATXN3-HiBiT protein) was 0.01 to 100 nM.

Molecule `[2H]C([2H])(OC(F)F)[C@H](N)Cc1oc2c(NCc3cccs3)cc(Cl)nc2c1C#CC` [Compound 48, 2-[(R)-2-amino-3-difluoromethoxy(3,3-^2H2)propyl]-5-chloro-3-(1-propynyl)-7-thenylamino-1-oxa-4-azaindene] has an EC50 (ATXN3-HiBiT protein) of 0.01 to 100 nM.

For `CC#Cc1c([C@H]2CCCC[C@@H]2N)oc2c(NCc3cccs3)cc(Cl)nc12` [Compound 49, 2-[(1S,2S)-2-aminocyclohexyl]-5-chloro-3-(1-propynyl)-7-thenylamino-1-oxa-4-azaindene], the IC50 ([1]; Homo sapiens) was 0.01 to 100 nM.

For `CC#Cc1c([C@H]2CC(F)(F)CC[C@@H]2N)oc2c(NCc3cccs3)cc(Cl)nc12` [Compound 52, 2-[(1S,2S)-2-amino-5,5-difluorocyclohexyl]-5-chloro-3-(1-propynyl)-7-thenylamino-1-oxa-4-azaindene], the IC50 ([1]; Homo sapiens) was 0.01 to 100 nM.
